Measurements taken from article PMC7185459 (Antiviral Research, 2015).
Read-outs that look alike come from different tables or passages of the source.

Experiments:
[1] = test system: hRSV strain Long; details: HEp-2 cells
[2] = test system: hRSV strain Long; assay: microbe, parasite or virus in culture; details: human respiratory syncytial virus, HEp-2, 96 h
[3] = test system: SRI 29365-resistant mutant hRSV (G protein A63V); format: cell-based, Human respiratory syncytial virus
[4] = test system: human metapneumovirus; assay: In vitro CPE assay, human metapneumovirus; format: cell-based
[5] = test system: Nipah virus; format: cell-based
[6] = test system: Venezuelan equine encephalitis virus; format: cell-based
[7] = test system: Dengue 2 virus; assay: In vitro CPE assay, Dengue 2 virus; format: cell-based
[8] = test system: human influenza virus; assay: In vitro CPE assay, human influenza virus; format: cell-based
[9] = test system: SARS CoV; format: cell-based
[10] = test system: RSV/A/Tracy; format: in vivo; details: cotton rat, intraperitoneal at -1, +6, +24 h, vs vehicle, day +4
[11] = test system: hRSV strain Long; details: A549 cells
[12] = physchem
[13] = physchem; remark: listed apart in the source
[14] = test system: hRSV strain Long; assay: microbe, parasite or virus in culture; details: human respiratory syncytial virus, A549

Compound	SI (CC50/EC50) [1]	EC50 [2] [nM]	resistance of mutant virus relative to wt virus EC50 [3] [fold]	reduction in CPE due to antiviral activity [4]	reduction in CPE due to antiviral activity [5]	reduction in CPE due to antiviral activity [6]	reduction in CPE due to antiviral activity [7]	reduction in CPE due to antiviral activity [8]	reduction in CPE due to antiviral activity [9]	body weight [10]	lung lobe weight [10]	SI (CC50/EC50) ([1]; listed as 2)	SI (CC50/EC50) [11]	solubility [12] [µM]	half-life [13] [h]	EC50 [14] [nM]
c1csc(-c2nn3c(Cn4cnc5ccccc54)nnc3s2)c1 [Compound 1, 1-[6-(2-thienyl)[1,2,4]triazolo[3,4-b][1,3,4]thiadiazol-3-yl]methyl-1H-benzimidazole]	391	230	–	–	–	–	–	–	–	–	–	–	–	–	–	–
c1coc(-c2nn3c(Cn4cnc5ccccc54)nnc3s2)c1 [SRI 29365, 1-[6-(2-furyl)[1,2,4]triazolo[3,4-b][1,3,4]thiadiazol-3-yl]methyl-1H-benzimidazole]	–	–	> 100	No significant reduction in CPE	No significant reduction in CPE	No significant reduction in CPE	No significant reduction in CPE	No significant reduction in CPE	No significant reduction in CPE	no significant difference	no significant difference	83	> 83	< 400	> 60	1200
